What was measured:
chicken embryos = experiment: Inhibitors counteracting thalidomide-induced limb truncations and microphthalmia in chicken embryos; type: in vivo
Protocol: Fertilized eggs were purchased from Deindl GmbH, Rietberg-Varensell. They were incubated at 38° C. in a humidified incubator, windowed after one day and staged according to Hamburger and Hamilton (HH stage). Racemic thalidomide (Celgene), thalidomide enantiomers or phthalimide (Sigma) were dissolved in DMSO at 5 mg/ml and further diluted in PBS. Embryos were exposed to drugs by dropping 15 μg-3 mg thalidomide or phthalimide per kg egg weight (about 1-200 μg per embryo) in 50 μl DMSO/PBS as a single dose at HH stages 0-13 onto the embryo. Thalidomide (50 μg) or phthalimide (50 μg) in 10 μl DMSO was injected into the extra-embryonic blood vessels of HH 19 stage embryos. LiCl (99% pure, Sigma) was dissolved in sterile PBS. LiCl (0.1, 0.6 or 3.2 mg) was applied at HH stages 17-19 by dropping 500 μl of a 5 mM, 28 mM or 151 mM LiCl solution onto the embryo. Recombinant Noggin, Dkk1 specific goat IgG (R&D Systems) or serum of non-immunized goats (Sigma) was dissolved in 0.1% BSA/0.01% Fast Green/PBS. Noggin (10 or 100 ng), Dkk1 specific goat IgG (5 or 50 ng) or serum of non-immunized goats (50 ng) was applied to a single embryo at HH stages 17-19 by injecting a 10 μl solution through the extra-embryonic membranes.
The morphology of the limbs was studied in specimens fixed in 5% trichloroacetic acid and stained for cartilage with alcian green as described (3).

[1] = test system: Bmp4 and Dkk1 expression in MEFs; experiment: sqRT-PCR of Bmp4 and Dkk1 expression in MEFs; type: cell-based, mouse; settings: 10 μg/ml, six hours
Protocol: Primary limb bud cells (PLBCs) were isolated from 60 pooled wing and hindlimb buds of HH stages 23/24 embryos. Fibroblasts were gained from HH stage 34 chicken embryos or from 13.5 d.p.c. mouse embryos. Human embryonic fibroblasts were provided by Matthias Maass (2). Before adding reagents, all cell types were cultured for 16 hours in D-MEM (Gibco) plus 10% fetal calf serum (FCS) and 2% chicken serum. Treatment with thalidomide, phthalimide, recombinant human (rh) BMP4 (300 ng/ml; R&D Systems), juglone (5 μM; Sigma), recombinant mouse Noggin (30, 300, 1000 ng/ml in FIG. 4B; 300 ng/ml in FIGS. 4C and 6A), anti-human-DKK1 antibody (35, 350 and 1000 ng/ml in FIG. 4B; 350 ng/ml in FIGS. 4C and 6A), LiCl (3, 30, 60 mM in FIG. 4B; 30 mM in FIGS. 4C, 6A and 6C) and/or (2Z,3E)-6-Bromoindirubin-3-oxime (BIO, Gsk3-Inhibitor IX; 50, 500, 1000 nM in FIG. 4B; 500 nM in FIG. 6A; 50 and 500 nM in FIG. 6C; Calbiochem) were performed in Optimem1 (Invitrogen) plus 1% FCS. Unless otherwise noted, all treatments with thalidomide and rh-BMP4 and associated controls were done for six hours. […]
RNA isolation, semi-quantitative RT-PCRs and whole mount in situ hybridizations were performed according to standard protocols that are well known within the art. […] Quantifications were performed using NIH Image 1.62.

β-catenin = experiment: Sub-cellular localization of β-catenin in HEFs; type: cell-based, human; settings: in the presence of Wnt3a; about 70% with Wnt3a alone
Protocol: CEFs or HEFs attached on cover slips were incubated with Wnt3a-conditioned medium including thalidomide or solvent or with control medium for five hours. β-catenin was detected by using a mouse anti-β-catenin antibody (1:500, BD Transduction Laboratories), an anti-mouse Cy3-coupled secondary antibody (Dianova) and fluorescence microscopy. Afterwards, a DAPI staining was performed as a control. Quantification was done by counting the nuclei with a clear fluorescent signal in relation to the number of DAPI-stained nuclei.

In the case of `O=C1CCC(N2C(=O)c3ccccc3C2=O)C(=O)N1` (racemic) [thalidomide, 2-(2,6-dioxo-3-piperidyl)isoindole-1,3-dione], the “embryos with limb truncations, thalidomide-treated control embryos” value (chicken embryos; control of the anti-Dkk1 antibody experiment (FIG. 7B)) was 15%, the “embryos with microphthalmia, thalidomide-treated control embryos” value (chicken embryos; in vivo) was 23% and the “embryos with limb truncations, thalidomide treatment” value (chicken embryos; survived to day seven (FIG. 7A)) was 19%. For the same compound, the “expression of Bmp4 and Dkk1 in MEFs” value [1] was “not in MEFs” and the “HEFs positive for nuclear β-catenin” value (β-catenin) was 10%.

Reference: patent US7723301B2, “Pharmaceutical compositions comprising an anti-teratogenic compound and applications of the same” (The Board of Trustees of the University of Arkansas, priority 2007, dated 2010)
